Reference: ChEMBL document CHEMBL1148813, “Discovery and characterization of novel, potent, non-peptide parathyroid hormone-1 receptor antagonists” (J Med Chem, 2007)

Key:
[1] = target: T1, Parathyroid hormone/parathyroid hormone-related peptide receptor (Homo sapiens, UniProt Q03431); experiment: Displacement of [125I]-[Nle,8,18 Tyr34]-hPTH(1-34) from human recombinant PTH1R expressed in HEK293 cells; format: cell-based
T1 sequence (Q03431 whole entry): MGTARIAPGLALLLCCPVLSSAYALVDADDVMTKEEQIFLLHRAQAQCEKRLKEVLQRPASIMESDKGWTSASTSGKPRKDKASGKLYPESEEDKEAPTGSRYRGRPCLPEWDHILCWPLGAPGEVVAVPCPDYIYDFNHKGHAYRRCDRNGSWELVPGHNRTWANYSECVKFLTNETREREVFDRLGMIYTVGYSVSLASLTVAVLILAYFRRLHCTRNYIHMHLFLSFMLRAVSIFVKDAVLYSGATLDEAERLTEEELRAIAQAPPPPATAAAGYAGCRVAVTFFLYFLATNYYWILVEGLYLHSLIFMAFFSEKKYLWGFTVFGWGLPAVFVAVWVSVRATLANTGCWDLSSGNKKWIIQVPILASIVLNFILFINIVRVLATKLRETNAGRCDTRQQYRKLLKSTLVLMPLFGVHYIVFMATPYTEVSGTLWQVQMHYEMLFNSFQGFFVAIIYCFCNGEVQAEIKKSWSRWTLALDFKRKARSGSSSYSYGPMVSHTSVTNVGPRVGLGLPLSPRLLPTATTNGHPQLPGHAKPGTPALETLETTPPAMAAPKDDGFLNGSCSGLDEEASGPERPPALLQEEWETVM

[2] = target: T2, Parathyroid hormone/parathyroid hormone-related peptide receptor (Homo sapiens) (UniProt Q03431); experiment: Displacement of [125I]-[Nle,8,18 Tyr34]-hPTH(1-34) from human recombinant PTH1R expressed in HEK293 cells at 10 uM; format: cell-based
T2 sequence (whole entry): T1 sequence (Q03431 whole entry)

[3] = target: T1, Parathyroid hormone/parathyroid hormone-related peptide receptor; experiment: Antagonist activity at human recombinant PTH1 receptor expressed in HEK293 cells assessed as inhibition of PTH(1-34)-stimulated cAMP production; format: functional, cell-based; details: read-out: pA2 (converted)
[4] = target: T1, Parathyroid hormone/parathyroid hormone-related peptide receptor; experiment: Antagonist activity at human wild type PTH1 receptor expressed in SaOS2 cells assessed as inhibition of PTHrP (1-34)-stimulated cAMP production at 3 uM; format: functional, cell-based, SAOS-2; details: read-out: pA2 (converted)
[5] = target: T3, Parathyroid hormone/parathyroid hormone-related peptide receptor (Mus musculus, UniProt P41593); experiment: Antagonist activity at mouse wild type PTH1 receptor expressed in MC3T3E1 cells assessed as inhibition of PTHrP (1-34)-stimulated cAMP production at 3 uM; format: functional, cell-based; details: read-out: pA2 (converted)
T3 sequence (P41593 whole entry): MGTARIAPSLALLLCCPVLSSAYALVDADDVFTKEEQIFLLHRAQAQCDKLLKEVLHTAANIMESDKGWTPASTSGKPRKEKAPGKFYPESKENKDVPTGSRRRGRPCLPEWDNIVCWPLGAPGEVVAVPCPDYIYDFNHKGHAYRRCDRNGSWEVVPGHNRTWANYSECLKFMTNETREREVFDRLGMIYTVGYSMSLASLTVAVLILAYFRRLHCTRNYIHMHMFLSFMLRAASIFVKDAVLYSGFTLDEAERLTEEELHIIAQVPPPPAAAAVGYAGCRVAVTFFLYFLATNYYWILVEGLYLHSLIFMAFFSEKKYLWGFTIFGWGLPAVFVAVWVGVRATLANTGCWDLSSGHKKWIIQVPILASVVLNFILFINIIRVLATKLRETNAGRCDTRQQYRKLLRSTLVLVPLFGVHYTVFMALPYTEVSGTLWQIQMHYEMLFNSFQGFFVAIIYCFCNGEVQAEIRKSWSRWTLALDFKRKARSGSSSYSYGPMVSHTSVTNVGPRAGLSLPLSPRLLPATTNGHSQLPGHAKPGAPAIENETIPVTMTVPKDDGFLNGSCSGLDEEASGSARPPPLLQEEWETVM

[6] = target: Parathyroid hormone 2 receptor (Homo sapiens) (UniProt P49190); experiment: Antagonist activity at human recombinant PTH2 receptor expressed in CHOK1 cells assessed as inhibition of TIP (1-39)-stimulated cAMP production at 10 uM; details: read-out: pA2 (converted)
Sequence of Parathyroid hormone 2 receptor (Homo sapiens) (P49190 whole entry, looked up): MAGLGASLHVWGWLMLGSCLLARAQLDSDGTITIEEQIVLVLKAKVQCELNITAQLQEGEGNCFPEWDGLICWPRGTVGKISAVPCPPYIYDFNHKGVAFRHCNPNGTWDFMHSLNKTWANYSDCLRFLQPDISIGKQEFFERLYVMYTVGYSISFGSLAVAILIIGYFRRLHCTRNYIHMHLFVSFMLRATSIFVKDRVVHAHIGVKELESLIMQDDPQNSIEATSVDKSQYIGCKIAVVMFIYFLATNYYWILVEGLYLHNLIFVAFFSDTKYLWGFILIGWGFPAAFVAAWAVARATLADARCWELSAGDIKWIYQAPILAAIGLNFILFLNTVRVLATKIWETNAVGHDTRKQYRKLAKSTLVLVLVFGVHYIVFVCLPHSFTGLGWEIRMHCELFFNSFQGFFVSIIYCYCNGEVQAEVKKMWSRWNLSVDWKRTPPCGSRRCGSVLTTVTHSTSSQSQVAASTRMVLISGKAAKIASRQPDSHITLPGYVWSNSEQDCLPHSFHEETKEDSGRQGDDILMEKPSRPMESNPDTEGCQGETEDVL

Homo sapiens = species on record: Homo sapiens; experiment: Selectivity for human recombinant PTH1 receptor over human recombinant PTH2 receptor
[7] = target: T2, Parathyroid hormone/parathyroid hormone-related peptide receptor (Homo sapiens); experiment: Antagonist activity at human wild type PTH1 receptor expressed in SaOS2 cells assessed as inhibition of PTHrP (1-34)-stimulated cAMP production; format: functional, cell-based; details: SAOS-2
[8] = target: T2, Parathyroid hormone/parathyroid hormone-related peptide receptor (Homo sapiens); experiment: Displacement of [125I]-[Nle,8,18 Tyr34]-hPTH(1-34) from human recombinant PTH1R expressed in HEK293 cells at 1 uM; format: cell-based

Compound	Ki [1] [nM]	further results
N=C(N)Nc1ccc(CN2C(=O)N(Cc3ccccc3)N=C(C3CCCCC3)c3ccccc32)cc1	933	–
N=C(N)Nc1ccc(N2C(=O)N(Cc3ccccc3)N=C(CN3CCCCC3)c3ccccc32)cc1	–	inhibition [2]: 27%
COCCN1N=C(C2CCCCC2)c2ccc(C)cc2N(c2ccc(NCCc3ncc[nH]3)cc2)C1=O	83.2	–
Cc1ccc2c(c1)N(c1ccc(NCCCc3ncc[nH]3)cc1)C(=O)N(C)N=C2C1CCCCC1	20.4	–
CC(C)C1=NN(Cc2ccccc2)C(=O)N(c2ccc(NC(=N)N)cc2)c2ccccc21	–	inhibition [2]: 43%
Cc1ccc2c(c1)N(c1ccc(NCCc3ncc[nH]3)cc1)C(=O)N(C1CCOCC1)N=C2C1CCCCC1	6.61	–
Cc1ccc2c(c1)N(c1ccc(NC(=N)N)cc1)C(=O)N(Cc1ccccc1)N=C2C1CCCCC1	155	–
NCC(=O)Nc1ccc(N2C(=O)N(Cc3ccccc3)N=C(C3CCCCC3)c3ccccc32)cc1	676	–
Cc1ccc2c(c1)N(c1ccc(NCCc3ncc[nH]3)cc1)C(=O)N(C(C)C)N=C2C1CCCCC1	3.55	–
Cc1ccc2c(c1)N(c1ccc(NCCc3ncc[nH]3)cc1)C(=O)N(C1CCc3ccccc3CC1)N=C2C1CCOCC1	6.76	–
N=C(N)Nc1ccc(N2C(=O)N(Cc3ccccc3)N=C(CC3CCCCC3)c3ccccc32)cc1	562	–
N=C(N)Nc1ccc(N2C(=O)N(Cc3ccccc3)N=C(c3ccccc3)c3ccccc32)cc1	3390	–
Cc1ccc2c(c1)N(c1ccc(NCCc3ncc[nH]3)cc1)C(=O)N(C1CCc3ccccc3CC1)N=C2C1CCCCC1	0.912	–
Cc1ccc2c(c1)N(c1ccc(NCc3ncc[nH]3)cc1)C(=O)N(C)N=C2C1CCCCC1	50.1	–
N=C(N)Nc1cccc(N2C(=O)N(Cc3ccccc3)N=C(C3CCCCC3)c3ccccc32)c1	2820	–
Cc1cc2c(cc1NCc1ccccc1)C(C1CCCCC1)=NN(C)C(=O)N2c1ccc(NCCc2ncc[nH]2)cc1	1.45	–
O=C(O)c1ccc(N2C(=O)N(Cc3ccccc3)N=C(C3CCCCC3)c3ccccc32)cc1	> 100000	–
Cc1ccc2c(c1)N(c1ccc(NC3=NCCN3)cc1)C(=O)N(Cc1ccccc1)N=C2C1CCCCC1	70.8	–
Cc1cc2c(cc1OCc1ccccc1)C(C1CCCCC1)=NN(C)C(=O)N2c1ccc(NCCc2ncc[nH]2)cc1	1.82	–
O=C1N(Cc2ccccc2)N=C(C2CCCCC2)c2ccccc2N1c1ccc(NC2=NCCN2)cc1	288	–
Cc1ccc2c(c1)N(c1ccc(NCCc3ncc[nH]3)cc1)C(=O)N(C)N=C2C1CCCCC1	13.2	Kb [3]: 17 nM; Kb [4]: 19.5 nM; Kb [5]: 513 nM; Kb [6]: 2880 nM; Selectivity ratio (Homo sapiens): 100; pKb [7]: 7.55
N=C(N)Nc1ccc(N2C(=O)N(Cc3ccccc3)N=C(C3CCCCC3)c3ccccc32)cc1	708	–
Cc1ccc2c(c1)N(c1ccc(NC(=O)C(N)C(C)C)cc1)C(=O)N(Cc1ccccc1)N=C2C1CCCCC1 (stereo not given)	112	–
Cc1ccc2c(c1)N(c1ccc(NCCc3ncc[nH]3)cc1)C(=O)N(Cc1ccccc1)N=C2C1CCCCC1	3.8	–
Cc1ccc2c(c1)N(c1ccc(NCCc3ncc[nH]3)cc1)C(=O)N(C1COc3ccccc3OC1)N=C2C1CCCCC1	8.71	–
CC(C)C(N)C(=O)Nc1ccc(N2C(=O)N(Cc3ccccc3)N=C(C3CCCCC3)c3ccccc32)cc1 (stereo not given)	380	–
Cc1ccc2c(c1)N(c1ccc(NCCc3ncc[nH]3)cc1)C(=O)N(C)N=C2C1CCOCC1	617	–
Nc1ccc(N2C(=O)N(Cc3ccccc3)N=C(C3CCCCC3)c3ccccc32)cc1	–	inhibition [8]: 39%
CCCN1N=C(C2CCCCC2)c2ccc(C)cc2N(c2ccc(NCCc3ncc[nH]3)cc2)C1=O	6.76	–
